Assay results as given in ChEMBL document CHEMBL1201862, “PubChem BioAssay data set” (2004).
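Growth conditions: 96-well plates. Treatment: test compound, 48 hours, 5 concentrations. Analysis: linear interpolation between bracketing concentrations; unreached endpoints set to highest concentration. The concentration for 50% growth inhibition is given as GI50.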 The source made the active and inactive calls. Rule as the data show it: active = GI50 up to about 1.1 µM and inactive = higher.

Experiments:
Experiment in all cases: NCI anticancer screen, dose series, 48 h
[1] = system: HOP-92
[2] = system: HCT-116
[3] = system: SNB-75
[4] = system: OVCAR-5
[5] = system: CCRF-CEM
[6] = system: SK-MEL-28
[7] = system: SN12C
[8] = system: RPMI-8226
[9] = system: HOP-62
[10] = system: 786-0
[11] = system: COLO 205
[12] = system: NCI/ADR-RES
[13] = system: SF-268
[14] = system: HCT-15
[15] = system: MCF7
[16] = system: SF-295
[17] = system: U-251
[18] = system: TK-10
[19] = system: SNB-19
[20] = system: SK-OV-3

Compound | GI50 [1] | GI50 [2] | GI50 [3] | GI50 [4] | GI50 [5] | GI50 [6] | GI50 [7] | GI50 [8] | GI50 [9] | GI50 [10] | GI50 [11] | GI50 [12] | GI50 [13] | GI50 [14] | GI50 [15] | GI50 [16] | GI50 [17] | GI50 [18] | GI50 [19] | GI50 [20]
C=C1C(=O)C2=CC1CCC(=O)C1(C)CCC(OC(C)=O)C(C)(C)C1CC2O (centres undefined) | 4.22 µM (inactive) | 1.6 µM (inactive) | 8.32 µM (inactive) | 5.32 µM (inactive) | 0.392 µM (active) | 3.66 µM (inactive) | 2.53 µM (inactive) | 2.53 µM (inactive) | 8.45 µM (inactive) | 3.01 µM (inactive) | 0.771 µM (active) | 4.11 µM (inactive) | 3.4 µM (inactive) | 0.552 µM | 0.798 µM (active) | 9.31 µM (inactive) | 2.93 µM (inactive) | 5.86 µM (inactive) | 3.58 µM (inactive) | 8.95 µM (inactive)
CCOC(=O)C1(Cc2c[nH]c3ccccc23)C(O)CCCN1C(C)=O (centres undefined) | > 100 µM (inactive) | > 100 µM (inactive) | > 100 µM (inactive) | > 100 µM (inactive) | > 100 µM (inactive) | > 100 µM (inactive) | – | > 100 µM (inactive) | > 100 µM (inactive) | > 100 µM (inactive) | > 100 µM (inactive) | > 100 µM (inactive) | > 100 µM (inactive) | > 100 µM | > 100 µM (inactive) | > 100 µM (inactive) | > 100 µM (inactive) | > 100 µM (inactive) | > 100 µM (inactive) | > 100 µM (inactive)
COc1ccc2nc3c([N+](=O)[O-])ccc(NCCCN(C)C)c3c(N)c2c1 | 1.87 µM (inactive) | 0.316 µM (active) | 1.66 µM (inactive) | 1.43 µM (inactive) | 0.245 µM (active) | 1.62 µM (inactive) | 1.6 µM (inactive) | 1.15 µM (inactive) | 1.78 µM (inactive) | 1.22 µM (inactive) | 0.764 µM (active) | 1.64 µM (inactive) | 1.45 µM (inactive) | 1.3 µM | 1.15 µM (inactive) | 1.37 µM (inactive) | 1.57 µM (inactive) | 1.62 µM (inactive) | 2.01 µM (inactive) | 1.45 µM (inactive)
O=P1(N(CCCl)CCCl)Oc2c(Cl)cc(Cl)c(Cl)c2Cc2c(Cl)c(Cl)cc(Cl)c2O1 | 24.5 µM (inactive) | 27.9 µM (inactive) | > 100 µM (inactive) | 30.8 µM (inactive) | 29.2 µM (inactive) | > 100 µM (inactive) | 61.9 µM (inactive) | 64.3 µM (inactive) | 64 µM (inactive) | 90.4 µM (inactive) | 22.5 µM (inactive) | 45 µM (inactive) | > 100 µM (inactive) | 48 µM | 64.7 µM (inactive) | 22.7 µM (inactive) | 96.6 µM (inactive) | 25 µM (inactive) | – | 43.2 µM (inactive)
COc1cc(Oc2nc3ccc(C(F)(F)F)cc3nc2-c2ccccc2)cc(OC)c1OC | 14.5 µM (inactive) | 10.8 µM (inactive) | 8.75 µM (inactive) | > 100 µM (inactive) | 48.5 µM (inactive) | 33.9 µM (inactive) | 37 µM (inactive) | 36.8 µM (inactive) | 11 µM (inactive) | 3.21 µM (inactive) | 15.2 µM (inactive) | > 100 µM (inactive) | 22.8 µM (inactive) | > 100 µM | 8.18 µM (inactive) | 9.48 µM (inactive) | 13 µM (inactive) | 30.1 µM (inactive) | – | 12.4 µM (inactive)
Cc1c(Cl)c(S(N)(=O)=O)cc2c1N=CNS2(=O)=O | > 100 µM (inactive) | > 100 µM (inactive) | > 100 µM (inactive) | > 100 µM (inactive) | > 100 µM (inactive) | > 100 µM (inactive) | > 100 µM (inactive) | > 100 µM (inactive) | > 100 µM (inactive) | > 100 µM (inactive) | > 100 µM (inactive) | > 100 µM (inactive) | > 100 µM (inactive) | > 100 µM | > 100 µM (inactive) | > 100 µM (inactive) | > 100 µM (inactive) | > 100 µM (inactive) | > 100 µM (inactive) | > 100 µM (inactive)
Cc1c(-c2ccccc2)c(C#N)c2nnn(-c3cccc(Cl)c3)c(=O)n12 | 44.9 µM (inactive) | 70 µM (inactive) | 31.2 µM (inactive) | > 100 µM (inactive) | 28.1 µM (inactive) | > 100 µM (inactive) | 71.8 µM (inactive) | 42.5 µM (inactive) | 37.2 µM (inactive) | 28.6 µM (inactive) | 44.4 µM (inactive) | > 100 µM (inactive) | 80.5 µM (inactive) | 41.1 µM | 43.9 µM (inactive) | 39.6 µM (inactive) | 68.4 µM (inactive) | > 100 µM (inactive) | – | 37.8 µM (inactive)
Fc1cccc(C2SCC3=Nc4ccccc4CN32)c1 (centres undefined) | 84.1 µM (inactive) | 27.8 µM (inactive) | > 100 µM (inactive) | 32.1 µM (inactive) | 29.9 µM (inactive) | 98.6 µM (inactive) | > 100 µM (inactive) | 36.8 µM (inactive) | 38.9 µM (inactive) | 37.8 µM (inactive) | 28.4 µM (inactive) | 11 µM (inactive) | 67.1 µM (inactive) | 58.9 µM | 35.4 µM (inactive) | 26.6 µM (inactive) | 58.2 µM (inactive) | 67.8 µM (inactive) | 21.6 µM (inactive) | 39.6 µM (inactive)
N#CCCN(CCC#N)c1ccc(/C=C2\SC(=S)NC2=O)cc1 | 75.9 µM (inactive) | > 100 µM (inactive) | 50.2 µM (inactive) | > 100 µM (inactive) | > 100 µM (inactive) | > 100 µM (inactive) | > 100 µM (inactive) | > 100 µM (inactive) | 35.2 µM (inactive) | 30 µM (inactive) | > 100 µM (inactive) | > 100 µM (inactive) | > 100 µM (inactive) | > 100 µM | > 100 µM (inactive) | 39.4 µM (inactive) | 20.3 µM (inactive) | 85.3 µM (inactive) | 33.9 µM (inactive) | > 100 µM (inactive)
Cc1nc(Cl)c2sc(=S)n(-c3ccc(F)cc3)c2n1 | 14.4 µM (inactive) | 1.75 µM (inactive) | 1.44 µM (inactive) | 10.8 µM (inactive) | 2.72 µM (inactive) | 2.33 µM (inactive) | 5.52 µM (inactive) | 3.4 µM (inactive) | 2.22 µM (inactive) | 2.45 µM (inactive) | 4.47 µM (inactive) | 6.56 µM (inactive) | 1.81 µM (inactive) | 3.21 µM | 2.84 µM (inactive) | 10.9 µM (inactive) | 5.06 µM (inactive) | 1.99 µM (inactive) | 1.88 µM (inactive) | 13.2 µM (inactive)
CC(C)c1ccc2c(c1)[C@@]1(C)CC[C@H](C)C(C)(C)C1CC2 (some centres undefined) | 16.9 µM (inactive) | 18.4 µM (inactive) | 17.2 µM (inactive) | 24.4 µM (inactive) | 23.7 µM (inactive) | 17 µM (inactive) | 17.7 µM (inactive) | 18.4 µM (inactive) | 18.8 µM (inactive) | 18.1 µM (inactive) | 20.1 µM (inactive) | 18.2 µM (inactive) | 19.1 µM (inactive) | 18.1 µM | 17.2 µM (inactive) | 20.6 µM (inactive) | – | 17.6 µM (inactive) | 19.7 µM (inactive) | 18.5 µM (inactive)
O=[N+]([O-])c1c(O)c2nonc2c2nn(-c3ccccc3)nc12 | > 100 µM (inactive) | > 100 µM (inactive) | > 100 µM (inactive) | > 100 µM (inactive) | > 100 µM (inactive) | > 100 µM (inactive) | > 100 µM (inactive) | > 100 µM (inactive) | > 100 µM (inactive) | > 100 µM (inactive) | > 100 µM (inactive) | > 100 µM (inactive) | > 100 µM (inactive) | > 100 µM | 20.5 µM (inactive) | > 100 µM (inactive) | > 100 µM (inactive) | 55.3 µM (inactive) | > 100 µM (inactive) | > 100 µM (inactive)
O=C(O)C(/C=C/c1ccccc1)c1ccccc1 (centres undefined) | > 100 µM (inactive) | > 100 µM (inactive) | > 100 µM (inactive) | > 100 µM (inactive) | 14.3 µM (inactive) | > 100 µM (inactive) | > 100 µM (inactive) | > 100 µM (inactive) | > 100 µM (inactive) | > 100 µM (inactive) | > 100 µM (inactive) | > 100 µM (inactive) | > 100 µM (inactive) | > 100 µM | > 100 µM (inactive) | > 100 µM (inactive) | > 100 µM (inactive) | > 100 µM (inactive) | > 100 µM (inactive) | > 100 µM (inactive)
CC(O[Si](c1ccccc1)(c1ccccc1)C(C)(C)C)[C@H](NC(=O)OC(C)(C)C)C(=O)O (some centres undefined) | 29.9 µM (inactive) | 34.2 µM (inactive) | 43.7 µM (inactive) | 75.3 µM (inactive) | 10.2 µM (inactive) | 50 µM (inactive) | – | 35.6 µM (inactive) | 49.8 µM (inactive) | 42.4 µM (inactive) | 22.7 µM (inactive) | 46.7 µM (inactive) | 57.3 µM (inactive) | 29 µM | 27.5 µM (inactive) | 19.8 µM (inactive) | 33.1 µM (inactive) | 45 µM (inactive) | 36.1 µM (inactive) | 30.4 µM (inactive)
CC(O)c1cc2c(s1)C(=O)c1c(C(C)O)csc1C2=O (centres undefined) | 0.248 µM (active) | 0.14 µM (active) | 0.316 µM (active) | 0.277 µM (active) | 0.173 µM (active) | 0.185 µM (active) | 0.138 µM (active) | 0.15 µM (active) | 0.199 µM (active) | 0.392 µM (active) | 1.28 µM (inactive) | 0.146 µM (active) | 0.249 µM (active) | 0.133 µM | 0.0573 µM (active) | 0.123 µM (active) | 0.316 µM (active) | 0.544 µM (active) | 0.33 µM (active) | 0.401 µM (active)
